Patent US12492403B2, “Aptamers and the use thereof in the treatment of cancer” (FUNDACIÓN PARA LA INVESTIGACIÓN BIOMÉDICA DEL HOSPITAL …, priority 2018, dated 2025)

Columns and labels:
Format in all cases: cell-based, human
MCF7 cells = assay: Apoptosis by annexin V/propidium iodide flow cytometry; settings: MCF7, working concentration 150 nM, 24 hours
Protocol: (§1) FIGS. 10A-10C. Analysis of the effect of the aptamer on apoptosis with annexin V in breast cell lines. MCF7 (FIG. 10A), MDA-MB-231 (FIG. 10B), and MDA-MB-468 (FIG. 10C) cells were seeded in 6-well plates at a density of 2.5×10^5 cells/well and transfected at 24 hours with apMNKQ2 at the set working concentrations. After 24 hours, the cells were collected, fixed, and stained with annexin V-FITC and propidium iodide. Finally, they were analyzed by cytometry. The bars represent the mean±SEM of 3 independent experiments (*p<0.05, **p<0.01, and ***p<0.001).
(§2) The assays were carried out by seeding 5×10^5 cells/well in 6-well plates and transfecting the cells 24 hours later. After 24 hours of transfection, the cells were collected and washed twice with PBS. They were then resuspended in a 1× binding buffer and left at a concentration of 1×10^6 cells/mL. Aliquots of 10^5 cells were separated from the preceding solution, as many as the number of treatments, and the annexin V and propidium iodide dyes were added to obtain: a double negative control (without labeling, living cells), a double positive for both types of labeling (late apoptotic cells and necrotic cells will be labeled), and cells labeled separately with annexin V and propidium iodide. They were incubated in darkness for 15 minutes at room temperature and brought to a final volume of 500 μL with a 1× binding buffer. Finally, the cells were passed through a flow cytometer (BD FACSCalibur™, BDBiosciences, USA) within a time no more than 1 hour after labeling. The data obtained was analyzed by means of the Flowing software 2.5.1 program.
(§3) The translocation of the […] from the inner face of the plasma membrane of the cells to the outer face by translocases is a process characteristic of apoptotic cells. To study this process, assays with annexin V-fluorescein (FITC) were performed in three cell lines. This recombinant protein binds to the phosphatidylserine residues exposed on the outer face of the plasma membrane of apoptotic cells. Together with said recombinant protein, propidium iodide (IP), an impermeable DNA marker that only enters cells when the membrane is compromised, was also used. To perform these assays, the cells were transfected with apMNKQ2 and with the control aptamer AT at the working concentrations. At 24 hours, the cells were collected, fixed, and stained with annexin V-FITC and propidium iodide. Finally, the cells were analyzed by means of flow cytometry and differentiation was made between non-apoptotic cells (annexin V-FICT negative/IP negative), apoptotic cells (annexin V-FICT positive/IP negative), late apoptotic cells (annexin V-FICT positive/IP positive), and necrotic cells (annexin V-FITC negative/IP positive).

MDA-MB-468 cells [1] = assay: as above; settings: MDA-MB-468, working concentration 50 nM, 24 hours
Protocol: as §1, §2, §3

MDA-MB-231 cells = assay: as above; settings: MDA-MB-231, working concentration 400 nM, 24 hours
Protocol: as §1, §2, §3

caspase 3 = assay: Caspase 3 activity by western blot of PARP and α-spectrin fragments; settings: MCF7, MDA-MB-231, and MDA-MB-468 cells, 24 hours post-transfection
Source text: FIGS. 11A & 11B. Effect of apMNKQ2 on caspase 3 activity by means of PARP and α-spectrin substrates in breast cell lines. Immunodetection with specific antibodies by means of 12% SDS-PAGE of “cleaved” PARP (FIG. 11A) and α-spectrin (FIG. 11B) for detecting the proteolytic activity of caspase 3 after the transfection of lines MCF7, MDA-MB-231, and MDA-MB-468 with apMNKQ2 and the control aptamer AT. The activity of this protease gives rise to characteristic proteolysis patterns with specific fragments of 89 kDa for PARP and 150 and 120 kDa for α-spectrin.
Caspase 3 activity was assessed by means of western blot with two endogenous substrates of this protein: • the enzyme poly ADP-ribose (PARP), fractionated in late apoptotic stages, using a specific antibody that only recognizes the PARP fragment processed by caspase 3. • the protein α-spectrin, with an antibody capable of recognizing the complete form and the fragments obtained after being broken down by caspase 3. Colony Formation Assays
Similarly, to verify that apMNKQ2 is capable of increasing apoptosis in the cell lines, the activity of caspase 3, a protease activated in apoptosis, was assessed. The western blot study was performed on two endogenous substrates of caspase 3: the enzyme poly ADP-ribose (PARP), fractionated in late apoptotic stages, and the protein α-spectrin. […]

MDA-MB-468 cells [2] = assay: MTT activity assay, aptamers transfected with Lipofectamine 2000; settings: MDA-MB-468, MTT activity at 48 hours, 0 to 500 nM
Protocol: FIGS. 8A-8C. Effect of aptamer apMNKQ2 on MTT activity of breast cell lines. MCF7, MDA-MB-231, and MDA-MB-468 cells were seeded in 96-well plates at a density of 10^4 cells/well. […] The graphs represent the means±SEM of 3 independent experiments (*p<0.05, **p<0.01, and ***p<0.001 with respect to the control AT).
The Lipofectamine™ 2000 system (Invitrogen, USA) was used to treat cells with the different aptamers. To prepare the DNA-lipofectamine complex, lipofectamine and DNA were separately diluted in opti-MEM (Gibco, USA) and left to incubate at room temperature for 5 minutes. They were then mixed to form lipofectamine-DNA complexes and incubated for 20 minutes at room temperature. Finally, the mixture was added to the cells that had been washed twice with antibiotic-free medium to prevent the interference thereof with lipofectamine. The cells were incubated at 37° C. for 5 hours, after which the reagent was removed and a complete medium was added.
MTT activity. The cells were seeded in 96-well plates and after having been transfected, the culture medium was removed and 100 μL/well of MTT at 1 mg/ml in culture medium were added. […] After 48 hours, the reduction of MTT was determined by means of spectrophotometry in Infinite F200 (TECAN, Switzerland) at 540 nm.
The results were expressed as the percentage of viability with respect to the control or in absorbance units.

5′TGGGGTGGGCGGGCGGGGGTGGGGGTGGT-3′ (DNA, backbone and methylation of C not given here; further chemistry not fully specified) [apMNKQ2]
induction of apoptosis (annexin V-FITC/propidium iodide) (MCF7 cells): capable of inducing apoptosis
late apoptosis with respect to the control (MCF7 cells): statistically significant
induction of apoptosis (annexin V-FITC/propidium iodide) (MDA-MB-468 cells [1]): greater and statistically significant
induction of apoptosis (annexin V-FITC/propidium iodide) (MDA-MB-231 cells): capable of inducing apoptosis
caspase 3 activity (proteolysis fragments of PARP and α-spectrin) (caspase 3): apoptotic effect
GI50 (MDA-MB-468 cells [2]): 19 nM
